Reference: US12129265B2, “Therapeutic agents and uses thereof” (Ankh Life Sciences Limited, priority 2020, dated 2024)

Tests used:
Assay in all cases: CellTiter-Glo in vitro cell proliferation assay, Example 8
Assay type in all cases: cell-based, Human
[1] = tested on: RPMI-8226 cells; settings: RPMI-8226, HMM
Description: (§1) Each proliferation assay was carried out as follows. The test cells were plated in growth media using a 384-well microtiter plate at 50 μL volume. The cells were incubated for 24 hours at 37° C. in a humidified incubator. After 24 hours of incubation, the test compounds were added to the test wells in DSMO solvent, at concentrations ranging from 0.0075-100 μM. Control wells received equal volumes of DSMO, without compound. Following drugging, the cells were incubated for 72 hours at 37° C. in a humidified incubator. After this exposure, 100 μL of a 1:1 mixture of sterile water and CellTiter-Glo® reagent (Promega) was added to each well. The plates were then incubated for 60 minutes at room temperature, followed by recording the luminescence value of each well using a luminometer as a measure of cell proliferation.
In this example, different cell lines were subjected to in vitro cell proliferation assays as described in Example 8. In particular, the cell lines are identified in the following Table 17, and the tissue types were: Pancreatic; Endometrial; Triple-Negative Breast Cancer (TNBC); Non-Small-Cell Lung Carcinoma (NSCLC); Ovarian; Renal Cell Carcinoma (RCC); Cervical-Squamous Cell; […] (H&N-Squamous Cell); Germinal Center B Cell-Like Novo Diffuse Large B-Cell Lymphoma (GCB-DLBCL); Activated B-Cell—Diffuse Large B Cell Lymphoma (ABC-DLBCL); Human Myeloma; Human Myeloma Cell Line Lymphocyte-Like; Human Myeloma Cell Line Lymphocyte-Like Myeloma Pleural Effusion Infiltration; Human Multiple Myeloma; Plasma Cell Leukemia/Multiple Myeloma Epstein-Barr Nuclear Antigen-Negative (EBNA-Negative) and to Express mRNA for Proto-Oncogene B-Cell Lymphoma 2 (BCL2); Multiple Myeloma from Peripheral Blood Type IgD Lmabda.

[2] = tested on: MDA-MB-468 cells; settings: MDA-MB-468, TNBC; read-out: Mean IC50
Description: (§2) In this Example, in vitro cell proliferation assays were performed using: (1) Human Myeloma tumor cell lines; (2) Human Lymphoma tumor cell lines; (3) Solid Human tumor cell lines; and (4) Parental, Lenalidomide resistant and Bortezomib resistant Jeko-1 Mantle cell Lymphoma tumor cell lines. The compounds tested were three diharmaline compounds, namely the 518B562 (or simply 562), 560, and 561 compounds. In addition, a monoharmaline product designated as 518F014 was also tested. This monoharmaline product had the following structure:
as §1

[3] = tested on: JIM1 cells; settings: JIM1, HMCL; read-out: Mean IC50
Description: as §2, §1

[4] = tested on: SiHA cells; settings: Cervical - SC, read-out: Mean IC50
Description: as §2, §1

[5] = tested on: OCI-LY3 cells; settings: OCI-LY3, ABC-DLBCL; read-out: Mean IC50
Description: as §2, §1

[6] = tested on: FaDu cells; settings: H&N - SC, read-out: Mean IC50
Description: as §2, §1

[7] = tested on: H1650 (EGFR mut) cells; settings: NSCLC, read-out: Mean IC50
Description: as §2, §1

[8] = tested on: KMS-34 cells; settings: KMS-34, HMCL-B; read-out: Mean IC50
Description: as §2, §1

[9] = tested on: HCC70 cells; settings: HCC70, TNBC; read-out: Mean IC50
Description: as §2, §1

[10] = tested on: L363 cells; settings: L363, PCL/MM; read-out: Mean IC50
Description: as §2, §1

[11] = tested on: ASPC-1 cells; settings: ASPC-1, Pancreatic; read-out: Mean IC50
Description: as §2, §1

[12] = tested on: HEC-1a cells; settings: Endometrial, read-out: Mean IC50
Description: as §2, §1

[13] = tested on: DOHH-2 cells; settings: DoHH-2, GCB-DLBCL; read-out: Mean IC50
Description: as §2, §1

[14] = tested on: AN3CA cells; settings: Endometrial, read-out: Mean IC50
Description: as §2, §1

[15] = tested on: H1975 (EGFR mut) cells; settings: NSCLC, read-out: Mean IC50
Description: as §2, §1

[16] = tested on: A2780CP cells; settings: Ovarian, read-out: Mean IC50
Description: as §2, §1

[17] = tested on: KMM-1 cells; settings: KMM-1, HMCL-A; read-out: Mean IC50
Description: as §2, §1

[18] = tested on: MIA PaCa-2 cells; settings: MIA PaCa-2, Pancreatic; read-out: Mean IC50
Description: as §2, §1

[19] = tested on: MDA-MB-231 cells; settings: MDA-MB-231, TNBC; read-out: Mean IC50
Description: as §2, §1

[20] = tested on: A2780 cells; settings: A2780, Ovarian; read-out: Mean IC50
Description: as §2, §1

[21] = tested on: MOLP-8 cells; settings: MOLP-8, MM IgD; read-out: Mean IC50
Description: as §2, §1

[22] = tested on: BxPC-3 cells; settings: BxPC-3, Pancreatic; read-out: Mean IC50
Description: as §2, §1

[23] = tested on: A498 cells; settings: A498, RCC; read-out: Mean IC50
Description: as §2, §1

| Structure (SMILES) | IC50 [1] [µM] | IC50 [2] [µM] | IC50 [3] [µM] | IC50 [4] [µM] | IC50 [5] [µM] | IC50 [6] [µM] | IC50 [7] [µM] | IC50 [8] [µM] | IC50 [9] [µM] | IC50 [10] [µM] | IC50 [11] [µM] | IC50 [12] [µM] | IC50 [13] [µM] | IC50 [14] [µM] | IC50 [15] [µM] | IC50 [16] [µM] | IC50 [17] [µM] | IC50 [18] [µM] | IC50 [19] [µM] | IC50 [20] [µM] | further results |
| --- | --- | --- | --- | --- | --- | --- | --- | --- | --- | --- | --- | --- | --- | --- | --- | --- | --- | --- | --- | --- | --- |
| COc1ccc2c3c([nH]c2c1)C(CC(CC1=NCCc2c1[nH]c1cc(OC)ccc21)c1ccccc1OC)=NCC3 [compound 1] | 1.87 | 4.39 | 4.51 | 9.44 | 3.42 | 5.36 | 8.18 | 4.15 | 8.02 | 2.62 | 6.44 | 9.27 | 2.25 | 2.5 | 6.54 | 4.45 | 4.2 | 3.67 | 5.72 | 5.9 | IC50 [21]: 1.98 µM; IC50 [22]: 4.3 µM; IC50 [23]: 9.91 µM |
| CCOc1cc(C(CC2=NCCc3c2[nH]c2cc(OC)ccc32)CC2=NCCc3c2[nH]c2cc(OC)ccc32)ccc1O [compound 2] | 8.51 | 9.9 | 11.5 | 17.1 | 6.58 | 13.5 | 21.6 | 9.35 | 21.2 | 6.26 | 15.2 | 21.6 | 3.66 | 6.72 | 19.5 | 20.2 | 9.4 | 7.51 | 14.3 | 16.9 | IC50 [21]: 5.3 µM; IC50 [22]: 7.88 µM; IC50 [23]: 16.8 µM |
| COc1ccc2c3c([nH]c2c1)C(CC(CC1=NCCc2c1[nH]c1cc(OC)ccc21)c1ccc(OC)c(OC)c1)=NCC3 [compound 4] | 4.09 | 6.27 | 6.89 | 17.1 | 5.57 | 7.69 | 13.6 | 4.75 | 11.6 | 6.38 | 11 | 16.3 | 3.17 | 5.1 | 14.1 | 10.8 | 6.32 | 4.37 | 12 | 11.5 | IC50 [21]: 5.03 µM; IC50 [22]: 6.05 µM; IC50 [23]: 12.7 µM |
| COc1ccc2c3c([nH]c2c1)C(CC(CC1=NCCc2c1[nH]c1cc(OC)ccc21)c1cc(OC)c(O)c([N+](=O)[O-])c1)=NCC3 [compound 5] | 19.3 | 14.7 | 17.7 | 36.9 | 12.3 | 22.3 | 23.4 | 17.4 | 15.1 | 22.2 | 15.7 | 27 | 9.31 | 11.4 | 28.1 | 24.6 | 20.3 | 19.9 | 23.7 | 24.1 | IC50 [21]: 14.4 µM; IC50 [22]: 21.2 µM; IC50 [23]: 22.8 µM |
| COc1ccc2c3c([nH]c2c1)C(CC(CC1=NCCc2c1[nH]c1cc(OC)ccc21)c1ccc(OC)c(O)c1)=NCC3 [compound 7] | 11.8 | 11.2 | 14.4 | 48.1 | 11.4 | 13.7 | 64.2 | 11.1 | 23.4 | 11.8 | 40.9 | 71.1 | 6.48 | 11.5 | 60.8 | 33.7 | 19.9 | 16.2 | 31.7 | 33 | IC50 [21]: 11.7 µM; IC50 [22]: 12.3 µM; IC50 [23]: 29.3 µM |
| COc1ccc2c3c([nH]c2c1)C(CC(CC1=NCCc2c1[nH]c1cc(OC)ccc21)c1cc(O)c(OC)c(OC)c1)=NCC3 [compound 11] | 10.1 | 12.2 | 11.5 | 15.9 | 11.3 | 16.4 | 26.2 | 11.1 | 27.2 | 11.6 | 21.9 | 36.3 | 4.32 | 8.74 | 19.5 | 24.9 | 12.1 | 11.7 | 13.5 | 18.3 | IC50 [21]: 10.8 µM; IC50 [22]: 11.5 µM; IC50 [23]: 51.3 µM |
| COc1ccc2c3c([nH]c2c1)C(CC(CC1=NCCc2c1[nH]c1cc(OC)ccc21)c1cc(Br)c(O)c(OC)c1)=NCC3 [compound 12] | 10.2 | 11.6 | 6.04 | 50.2 | 11.3 | 18.2 | 21.6 | 7.19 | 22 | 10.9 | 31.3 | 24.8 | 3.72 | 5.36 | 13 | 20.5 | 10.6 | 11.7 | 11.3 | 21.2 | IC50 [21]: 3.88 µM; IC50 [22]: 11.3 µM; IC50 [23]: 40.9 µM |
| COc1ccc2c3c([nH]c2c1)C(CC(CC1=NCCc2c1[nH]c1cc(OC)ccc21)c1ccc(OC)c(O)c1I)=NCC3 [compound 14] | 7.53 | 16.9 | 17.9 | 51.9 | 15.4 | 19.2 | 25.4 | 14.6 | 33.3 | 23.4 | 53.1 | 28.7 | 7.9 | 9.05 | 33.6 | 24.3 | 23.9 | 22.2 | 32.4 | 21.2 | IC50 [21]: 10.1 µM; IC50 [22]: 21 µM; IC50 [23]: 54.7 µM |
| COc1cccc(C(CC2=NCCc3c2[nH]c2cc(OC)ccc32)CC2=NCCc3c2[nH]c2cc(OC)ccc32)c1 [compound 15] | 2.95 | 6.7 | 6.26 | 12.3 | 6.32 | 6.62 | 9.6 | 3.5 | 11.7 | 6.58 | 5.45 | 13.1 | 5.05 | 3.45 | 12.1 | 7.63 | 7.36 | 3.63 | 6.77 | 8.45 | IC50 [21]: 3.19 µM; IC50 [22]: 4.22 µM; IC50 [23]: 15.2 µM |
